Assay results as given in patent US6999905B2, “Method for extracting significant signal, recording medium and program” (priority 2002, dated 2006).

Assays:
Type in all cases: cell-based
[1] = system: neuron prepared from Lymnaea stagnails
[2] = system: neuron prepared from Lymnaea stagnails; assay: Electrical signal of a neuron under glutamate, average of standard deviations (Example 1); conditions: 0, 0.1, 0.3, 1, 3, 10, 30, or 100 μM glutamate; standard deviation of 100 milliseconds; FIG. 6
Source text: FIG. 2 is a schematic diagram showing a configuration of an apparatus and steps used in a signal extracting method according to Example 1 of the present invention. The apparatus comprises a measurement section 101 for continuously measuring action potential generated from a neuron; a computer 100 incorporating a hard disk storing a program for executing a standard deviation calculation step 102 for calculating a standard deviation of measured data every predetermined time, an average calculation step 105 for calculating an average of standard deviation values output every predetermined time, and an activity calculation step 108 for calculating an ion channel activity from an average output from the average calculation step 105; and a data displaying section 110, such as CRT, for displaying the ion channel activity.
The apparatus was used to measure an electrical signal of a neuron which was actually prepared from Lymnaea stagnails where 0, 0.1, 0.3, 1, 3, 10, 30, or 100 μM glutamate was applied to the neuron. The resultant measured data spanning […] was divided into pieces of subdata spanning 100 milliseconds, for each of which a standard deviation was in turn calculated. The average of the standard deviations was plotted in FIG. 6. […]

[3] = system: neuron prepared from Lymnaea stagnails; assay: Extracellular recording of a neuron before and after glutamate, normal distribution of standard deviations (Example 2); conditions: after application of 50 μM glutamate, before application 0.488
Source text: FIG. 3 is a schematic diagram showing a configuration of an apparatus and steps used in a signal extracting method according to Example 2 of the present invention. The apparatus comprises a measurement section 101 for continuously measuring action potential generated from a neuron; a computer 100 incorporating a hard disk storing a program for executing a standard deviation calculation step 102 for calculating a standard deviation of measured data every predetermined time, a normal distribution approximation step 103 for dividing a standard deviation group consisting of a plurality of resultant standard deviations into a plurality of classes having a predetermined width of standard deviation as a unit, and plotting each standard deviation on a coordinate system in which X axis represents the class and Y axis represents the number of the standard deviations existing in each class, an average and half-width calculation step 106 for approximating the resultant graph to a normal distribution, and calculating the average and half-width of the resultant normal distribution, and an activity categorization step 109 for categorizing an ion channel activity based on the resultant average and half-width; and a data displaying section 110, such as CRT, for displaying the ion channel activity. […]

[4] = system: neuron prepared from Lymnaea stagnails; assay: Conventional intracellular recording of a neuron before and after glutamate, same signal processing (Example 2, FIG. 8); conditions: after application of glutamate, before application 0.181
Source text: The curve to the left in FIG. 8 is a histogram of standard deviation values every 5 milliseconds before application of glutamate. The curve to the right in FIG. 8 is a histogram of standard deviation values every 5 milliseconds after the application of glutamate. As indicated in these figures, the averages and half-widths of graphs obtained by approximating the histograms, before and after the application of glutamate, to normal distributions are 0.181 and 0.041, respectively, before the application and 0.534 and 0.204, respectively, after the application. Comparing between the results of FIGS. 7 and 8, the result of the extracellular recording method is similar to that of the intracellular recording method.

[5] = system: Smooth muscle cells derived from rat aorta vessels; assay: Potential changes of smooth muscle cells on a semiconductor substrate stimulated with norepinephrine (Example 7); conditions: 10 μM norepinephrine; potential changes measured for 60 seconds; FIG. 15
Description: Smooth muscle cells derived from rat aorta vessels were cultured on a specially treated semiconductor substrate.
The semiconductor substrate has 100 through holes, each of which has a diameter of 5 μm with the pitch of the through holes being 30 μm, in an area of 1 mm^2. A surface of the semiconductor substrate was coated with 0.01% (w/v) collagen type I solution (Sigma C8919) at a density of 10 μg/cm^2, which was in turn allowed to react at 37° C. for 30 minutes, followed by air drying. Smooth muscle cells derived from rat aorta vessels were cultured on the substrate cleansed with sterilized water. After three days of the culture, the following experiment was conducted.
When measuring ion channel activity, the vessel smooth muscle cells were suctioned by applying a predetermined pressure from the rear side of the semiconductor substrate so that the cells were made to contact the semiconductor substrate. […] In an experimental system, the smooth muscle cells were stimulated with 10 μM norepinephrine, and potential changes were measured for 60 seconds. […] Note that the collection of time-series data was started 10 milliseconds after the start of the experiment, so that measured data was not extracted for the time lag. Thereafter, standard deviations were calculated every 100 milliseconds from the time-series data, thereby clearly extracting ion channel activities due to the stimulant. […]

SMILES | average of the distribution of standard deviation values every 5 milliseconds [1] | average of the standard deviations (ion channel activity) [2] | average of normal distribution of standard deviation values every 5 milliseconds [3] | average of normal distribution of standard deviation values every 5 milliseconds [4] | average of the normal distribution of standard deviations every 100 milliseconds (ion channel activities) [5]
NC1=N[C@H](O)[C@H]2[C@H]3O[C@]4(O)O[C@@H]([C@@H](O)[C@@]2(N1)[C@@H]4O)[C@]3(O)CO [TTX, tetrodotoxin] | shifted along the horizontal axis toward the left further than the control |  |  |  | 
N[C@@H](CCC(=O)O)C(=O)O [glutamate] | shifted toward the right along the horizontal axis | dependent on glutamate concentration | 0.733 | 0.534 | 
NC[C@H](O)c1ccc(O)c(O)c1 [norepinephrine] |  |  |  |  | clearly shifted toward higher class values than when no drug was applied
